Converted amounts (≈) assume the structure as drawn.
Experiments:
Type in all cases: functional
Staphylococcus aureus [1] = assay: Antimicrobial activity against methicillin-sensitive Staphylococcus aureus Smith ATCC 19636 by tube dilution method
Staphylococcus aureus [2] = assay: Antimicrobial activity against methicillin-resistant Staphylococcus aureus ATCC 43300 by broth microdilution method
[3] = test system: Staphylococcus epidermidis; assay: Antimicrobial activity against methicillin-resistant Staphylococcus epidermidis ATCC 51625 by broth microdilution method
Staphylococcus aureus [4] = assay: Antimicrobial activity against vancomycin-intermediate Staphylococcus aureus CDC HIP 5836 by broth microdilution method
Enterococcus faecalis = assay: Antimicrobial activity against vancomycin-sensitive Enterococcus faecalis ATCC 29212 by broth microdilution method
Enterococcus faecium = assay: Antimicrobial activity against vancomycin/multidrug-resistant Enterococcus faecium ATCC 51559 by broth microdilution method
Staphylococcus aureus [5] = assay: Antimicrobial activity against methicillin-sensitive Staphylococcus aureus Smith ATCC 19636 by broth microdilution method
[6] = Staphylococcus aureus, Smith, read-out: MIC

Structure (SMILES)	MIC (Staphylococcus aureus [1]; [6]) [µg/mL]	MIC (Staphylococcus aureus [2]) [µg/mL]	MIC [3] [µg/mL]	MIC (Staphylococcus aureus [4]) [µg/mL]	MIC (Enterococcus faecalis) [µg/mL]	MIC (Enterococcus faecium) [µg/mL]	MIC (Staphylococcus aureus [5]) [µg/mL]	MIC (Staphylococcus aureus [1]) [µg/mL]
CCCCCCCCCCCCCCNC(=O)N[C@@H](Cc1ccccc1)C(=O)N[C@@H](CC(N)=O)C(=O)N[C@H]1CNC(=O)[C@@H]2CCCN2C(=O)[C@H]([C@H](C)CC)NC(=O)[C@H]([C@@H](C)O)NC(=O)CNC(=O)[C@H](CC(=O)O)NC(=O)CNC(=O)[C@H](CC(=O)O)NC(=O)CNC(=O)[C@@H]2CCCCN2C1=O	4 (≈ 2.84 µM)	4 (≈ 2.84 µM)	4 (≈ 2.84 µM)	8 (≈ 5.67 µM)	2 (≈ 1.42 µM)	8 (≈ 5.67 µM)	4 (≈ 2.84 µM)	–
CCCCCCCCCCCCCCCCS(=O)(=O)N[C@@H](Cc1ccccc1)C(=O)N[C@@H](CC(=O)O)C(=O)N[C@H]1CNC(=O)[C@@H]2CCCN2C(=O)[C@H]([C@H](C)CC)NC(=O)[C@H]([C@@H](C)O)NC(=O)CNC(=O)[C@H](CC(=O)O)NC(=O)CNC(=O)[C@H](CC(=O)O)NC(=O)CNC(=O)[C@@H]2CCCCN2C1=O	4 (≈ 2.74 µM)	8 (≈ 5.48 µM)	4 (≈ 2.74 µM)	> 64	2 (≈ 1.37 µM)	4 (≈ 2.74 µM)	> 64	–
CCCCCCCCCCCCCCC(=O)N[C@@H](Cc1ccccc1)C(=O)N[C@@H](CC(=O)O)C(=O)N[C@H]1CNC(=O)[C@@H]2CCCN2C(=O)[C@H]([C@H](C)CC)NC(=O)[C@H]([C@@H](C)O)NC(=O)CNC(=O)[C@H](CC(=O)O)NC(=O)CNC(=O)C(CC(=O)O)NC(=O)CNC(=O)[C@@H]2CCCCN2C1=O (single isomer, unassigned)	4 (≈ 2.86 µM)	4 (≈ 2.86 µM)	4 (≈ 2.86 µM)	32 (≈ 22.9 µM)	4 (≈ 2.86 µM)	8 (≈ 5.73 µM)	4 (≈ 2.86 µM)	–
CCCCCCCCCCCCCCC(=O)N[C@@H](CC(=O)O)C(=O)N[C@H]1CNC(=O)[C@@H]2CCCN2C(=O)[C@H]([C@H](C)CC)NC(=O)[C@H]([C@@H](C)O)NC(=O)CNC(=O)[C@H](CC(=O)O)NC(=O)CNC(=O)C(CC(=O)O)NC(=O)CNC(=O)[C@@H]2CCCCN2C1=O (single isomer, unassigned)	–	4 (≈ 3.2 µM)	8 (≈ 6.4 µM)	16 (≈ 12.8 µM)	4 (≈ 3.2 µM)	4 (≈ 3.2 µM)	4 (≈ 3.2 µM)	2 (≈ 1.6 µM)
CCCCCCCCCCCCCCC(=O)N[C@@H](Cc1c[nH]c2ccccc12)C(=O)N[C@H](CC(=O)O)C(=O)N[C@H]1CNC(=O)[C@@H]2CCCN2C(=O)[C@H]([C@H](C)CC)NC(=O)[C@H]([C@@H](C)O)NC(=O)CNC(=O)[C@H](CC(=O)O)NC(=O)CNC(=O)C(CC(=O)O)NC(=O)CNC(=O)[C@@H]2CCCCN2C1=O (single isomer, unassigned)	> 64	–	–	–	–	–	–	–
CCCCCCCCCCCCOC(=O)N[C@@H](CC(N)=O)C(=O)N[C@H]1CNC(=O)[C@@H]2CCCN2C(=O)[C@H]([C@H](C)CC)NC(=O)[C@H]([C@@H](C)O)NC(=O)CNC(=O)[C@H](CC(=O)O)NC(=O)CNC(=O)[C@H](CC(=O)O)NC(=O)CNC(=O)[C@@H]2CCCCN2C1=O	8 (≈ 6.47 µM)	–	–	–	–	–	–	–
CCCCCCCCCCCCCCC(=O)NCC(=O)N[C@@H](CC(=O)O)C(=O)N[C@H]1CNC(=O)[C@@H]2CCCN2C(=O)[C@H]([C@H](C)CC)NC(=O)[C@H]([C@@H](C)O)NC(=O)CNC(=O)[C@H](CC(=O)O)NC(=O)CNC(=O)C(CC(=O)O)NC(=O)CNC(=O)[C@@H]2CCCCN2C1=O (single isomer, unassigned)	> 64	–	–	–	–	–	–	–

From ChEMBL document CHEMBL1142959, “Semisynthetic approaches to laspartomycin analogues” (2007)
